In US11046670B2, “Piperazinyl norbenzomorphan compounds and methods for using the same” (priority 2015, dated 2021):
Read-outs that look alike come from different tables or passages of the source.

Experiments:
sigma 2 receptor [1] = target: T1, sigma 2 receptor (Rattus norvegicus (Rat), UniProt Q5U3Y7); settings: for Ki: read-out: σ2 Ki; for Ki(σ1)/Ki(σ2): selectivity σ2 over σ1
Procedure: (§1) Sigma-2 receptor ligands and their binding assays. […] The compounds were dissolved in 100% DMSO prior to the receptor binding assays, which were performed by the Psychoactive Drug Screening Program (PDSP) at Chapel Hill, N.C. […] Briefly, Sig2Rs were sourced from rat liver homogenates (PC12 cells). The Sig2R ligand binding affinity was determined through competition binding assays using the radioligand [^3H]-ditolylguanidine in the presence of (+)-pentazocine to block Sig1R binding sites. The radioactivity in the presence of the test compound is calculated with the following equation and expressed as a percent inhibition: % inhibition=(sample CPM non-specific CPM)/(Total CPM non-specific CPM)×100 where
(§2) CPM stands for counts per minute. To determine secondary binding data, CPM/well are pooled and fitted to a three parameter logistic function for competition binding in Prism v 5.0 to determine IC50 values, which are converted to K, according to the Cheng-Prusoff equation.
(§3) Receptor binding assays were performed by the Psychoactive Drug Screening Program (PDSP) at Chapel Hill, N.C. […] Briefly, Sig1Rs and Sig2Rs were sourced from homogenates of Guinea pig brains and rat livers, respectively. Assessment of Sig1R binding affinity was determined via competition binding assays with the radioligand [3H]-(+)-pentazocine. Sig2R binding affinity was determined through competition binding assays using the radioligand [3H]-ditolylguanidine in the presence of (+)-pentazocine to block Sig1R binding sites. […] The radioactivity in the presence of the test compound is calculated with the following equation and expressed as a percent inhibition: % inhibition=(sample CPM non-specific CPM)/Total CPM−non-specific CPM)×100. The normalization process is carried out in Prism or Excel. To determine secondary binding results, CPM/well are pooled and fitted to a three parameter logistic function for competition binding in Prism v 5.0 to determine IC50 values, which are converted to Ki according to the Cheng-Prusoff equation.

sigma 1 receptor [2] = target: T2, sigma 1 receptor (Cavia porcellus (Guinea pig), UniProt Q60492); assay: biochemical; settings: for inhibition at 10 µM: read-out: σ1 inhibition of radioligand binding
Procedure: as §3

sigma 2 receptor [3] = target: T1, sigma 2 receptor; assay: biochemical; settings: for inhibition at 10 µM: read-out: σ2 inhibition of radioligand binding
Procedure: as §1, §2, §3

sigma 1 receptor [4] = target: T2, sigma 1 receptor; settings: for Ki: read-out: σ1 Ki
Procedure: as §3

[5] = tested on: Wild-type mice (C57BL/6) subjected to Blast (brain injury); assay: Traumatic Brain Injury, Barnes Maze after blast; assay type: in vivo; settings: seven days of daily treatment beginning the day after injury, compared to Veh
Text: FIG. 9 Traumatic Brain Injury treatment; Barnes Maze (spatial and long term memory) after blast; Wild-type mice (C57BL/6) were subjected to either a Blast (brain injury) or Sham blast (no brain injury).

[6] = tested on: Wild-type mice (C57BL/6) subjected to Blast (brain injury); assay: Traumatic Brain Injury, Morris Water Maze after blast; assay type: in vivo; settings: seven days of daily treatment beginning the day after injury, compared to Veh
Text: FIG. 10 Traumatic Brain Injury treatment; Morris Water Maze (spatial and long term memory) after blast; Wild-type mice (C57BL/6) were subjected to either a Blast (brain injury) or Sham blast (no brain injury).

neuroblastoma cells [7] = assay: Calcium ion levels in neuroblastoma cells; assay type: cell-based
[8] = tested on: proinflammatory cytokines (IL-1β, TNFα, CD14); assay: Brain levels of proinflammatory cytokines in transgenic mice; assay type: in vivo; settings: Thy1-APPLond/Swe+ mice, 60 days of treatment (30 mg/kg)
[9] = tested on: Murine hippocampal neuron slices; assay: Synaptic long term depression in hippocampal neuron slices
Text: FIG. 13 Effect of SAS-0132 on Synaptic Long Term Depression (inhibition); effect of SAS-0132 on dihydroxyphenylglycine (DHPG) mediated increase in long term depression (LTD).

neuroblastoma cells [10] = assay: MTT Assay in Neuroblastoma Cells
Procedure: FIG. 15 MTT Assay in Neuroblastoma Cells; Sigma 2 receptor binding ligands were evaluated for effects in neuroblastoma cells.
FIG. 16 MTT Assay in Neuroblastoma Cells; Sigma 2 receptor binding ligands were evaluated for effects in neuroblastoma cells.

σ2R = σ2R (Homo sapiens (Human), UniProt Q5BJF2); settings: cited from earlier work
σ2R, sequence (Q5BJF2 whole entry): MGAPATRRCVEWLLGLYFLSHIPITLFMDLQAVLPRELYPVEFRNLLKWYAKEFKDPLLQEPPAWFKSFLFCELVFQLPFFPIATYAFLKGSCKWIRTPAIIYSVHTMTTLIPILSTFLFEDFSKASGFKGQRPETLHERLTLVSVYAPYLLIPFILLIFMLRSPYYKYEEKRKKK

T2 sequence (Q60492 whole entry): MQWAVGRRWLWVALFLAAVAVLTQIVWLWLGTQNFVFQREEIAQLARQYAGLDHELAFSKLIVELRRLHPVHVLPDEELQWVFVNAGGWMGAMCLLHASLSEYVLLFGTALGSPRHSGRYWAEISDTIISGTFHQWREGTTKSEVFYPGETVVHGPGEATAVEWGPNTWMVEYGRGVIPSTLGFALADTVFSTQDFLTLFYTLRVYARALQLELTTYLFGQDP
T1 sequence (Q5U3Y7 whole entry): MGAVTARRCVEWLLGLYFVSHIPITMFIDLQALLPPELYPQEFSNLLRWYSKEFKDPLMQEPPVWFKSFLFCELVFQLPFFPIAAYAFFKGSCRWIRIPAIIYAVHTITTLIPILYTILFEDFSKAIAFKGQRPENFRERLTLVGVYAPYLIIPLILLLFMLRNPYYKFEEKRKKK

SMILES	Ki (sigma 2 receptor [1]) [nM]	σ1 pKi ± SEM (sigma 1 receptor [4])	Ki (sigma 1 receptor [4]) [nM]	σ2 pKi ± SEM (sigma 2 receptor [1])	Ki(σ1)/Ki(σ2) (sigma 2 receptor [1])	also measured
CCCOC(=O)CCN1CCN(c2ccc3c(c2)[C@H]2C[C@H]3CCN2C(=O)OCc2ccccc2)CC1	58	–	–	–	–	–
CN1CCN(c2ccc3c(c2)C2CC3CCN2C(=O)C2CCCCC2)CC1 (racemic) [(±)-TH-1-106, (±)-Cyclohexyl(8-(4-methylpiperazin-1-yl)-1,3,4,5-tetrahydro-2H-1,5-methanobenzo[c]azepin-2-yl)methanone]	–	–	–	–	–	Ki (sigma 1 receptor [2]; σ1 Ki (nM)): 1420 nM; Ki (sigma 2 receptor [3]): 144 nM
O=C(OCc1ccccc1)N1CC[C@@H]2C[C@@H]1c1cc(Cl)ccc12 [Compound 12]	–	–	–	–	–	inhibition at 10 µM (sigma 1 receptor [2]): < 50%; inhibition at 10 µM (sigma 2 receptor [3]): < 50%
O=C(OCc1ccccc1)N1CC[C@@H]2C[C@@H]1c1cc(N3CCOCC3)ccc12 [Compound 16]	–	–	–	–	–	sigma receptor binding (in words) (sigma 2 receptor [1]): did not bind; inhibition at 10 µM (sigma 1 receptor [2]): < 50%; inhibition at 10 µM (sigma 2 receptor [3]): < 50%
C=CCCN1CCN(c2ccc3c(c2)[C@H]2C[C@H]3CCN2C(=O)OCc2ccccc2)CC1 [Compound 29]	16	6.76 ± 0.05	172	7.79 ± 0.05	11	–
CC(C)=CCN1CCN(c2ccc3c(c2)[C@H]2C[C@H]3CCN2C(=O)OCc2ccccc2)CC1 [Compound 30]	23	7.21 ± 0.05	62	7.64 ± 0.07	3	–
CN1CCN(c2ccc3c(c2)[C@H]2C[C@H]3CCN2)CC1 [Compound 33]	–	–	–	–	–	inhibition at 10 µM (sigma 2 receptor [3]): < 50%
CN1CCN(c2ccc3c(c2)[C@H]2C[C@H]3CCN2S(=O)(=O)c2ccccc2)CC1 [Compound 35]	764	–	–	6.12 ± 0.07	–	inhibition at 10 µM (sigma 1 receptor [2]): < 50%
Fc1ccccc1CN1CC[C@@H]2C[C@@H]1c1cc(N3CCOCC3)ccc12 [Compound 40]	1260	5.34 ± 0.09	4540	5.9 ± 0.1	4	preference / selectivity for σ2R relative to σ1R (sigma 2 receptor [1]): 4 fold
Cc1cccc(-c2ccc3c(c2)[C@H]2C[C@H]3CCN2C)c1 [Compound 43]	133	6.41 ± 0.08	391	6.88 ± 0.07	3	–
CCCN1CCN(c2ccc3c(c2)C2CC3CCN2C(=O)OCc2ccccc2)CC1 (centres unmarked) [DKR-1516]	–	–	–	–	–	spatial- and long term memory, Barnes Maze [5]: performed significantly better; spatial- and long term memory, Morris Water Maze [6]: performed significantly better
CN1CCN(c2ccc3c(c2)[C@H]2C[C@@H]3CCN2C(=O)OCc2ccccc2)CC1 [SAS-0132]	–	–	–	–	–	spatial- and long term memory, Barnes Maze [5]: performed significantly better; DKR-1051-induced calcium response (neuroblastoma cells [7]): concentration-dependent attenuation; intracellular Ca2+ concentration (neuroblastoma cells [7]; concentrations up to 30 μM): does not induce significant increases; brain levels of CD14 [8]: not statistically significant; brain levels of IL-1β [8]: significant reduction; brain levels of TNFα [8]: not statistically significant; DHPG-mediated increase in LTD [9]: blocked; concentration at which cytotoxicity begins (neuroblastoma cells [10]): around 30 microM; toxicity in MTT assay (in words) (neuroblastoma cells [10]): not toxic at low doses
OCCN1CCN(CCCN2c3ccccc3C=Cc3ccccc32)CC1 [opipramol]	–	–	–	–	–	affinity for σ2R (σ2R): appreciable affinity

Further lines, with some results ahead:

Ki (sigma 2 receptor [1]) [nM]	σ1 pKi ± SEM (sigma 1 receptor [4])	Ki (sigma 1 receptor [4]) [nM]	σ2 pKi ± SEM (sigma 2 receptor [1])	Ki(σ1)/Ki(σ2) (sigma 2 receptor [1])	SMILES	also measured
318	5.61 ± 0.06	2430	6.5 ± 0.1	8	c1ccc(CN2CC[C@@H]3C[C@@H]2c2cc(N4CCCCC4)ccc23)cc1 [Compound 19]	preference / selectivity for σ2R relative to σ1R (sigma 2 receptor [1]): about 8 fold
357	6.53 ± 0.08	294	6.45 ± 0.06	1	CN1CCN(c2ccc3c(c2)[C@H]2C[C@H]3CCN2C(=O)CCc2ccccc2)CC1 [Compound 36]	–
442	5.68 ± 0.07	2100	6.37 ± 0.07	5	C=CCOC(=O)N1CC[C@@H]2C[C@@H]1c1cc(N3CCN(C)CC3)ccc12 [Compound 37]	–
746	–	3520	–	5	Clc1cccc(CN2CC[C@@H]3C[C@@H]2c2cc(N4CCCCC4)ccc23)c1 [Compound 38]	Ki (sigma 1 receptor [2]; σ1 pKi ± SEM): 3160 nM; Ki (sigma 2 receptor [3]): 794 nM
92	5.53 ± 0.09	2980	–	32	Clc1cc(Cl)cc(CN2CC[C@@H]3C[C@@H]2c2cc(N4CCOCC4)ccc23)c1 [Compound 39]	preference / selectivity for σ2R relative to σ1R (sigma 2 receptor [1]): 32 fold; Ki (sigma 2 receptor [3]): 100 nM
43	6.81 ± 0.09	156	7.36 ± 0.08	4	CN1CC[C@@H]2C[C@@H]1c1cc(-c3ccc(C(F)(F)F)cc3)ccc12 [Compound 41]	–
166	–	1060	6.8 ± 0.1	6	FC(F)(F)c1ccc(-c2ccc3c(c2)[C@H]2C[C@H]3CCN2CCc2ccccc2)cc1 [Compound 42]	Ki (sigma 1 receptor [2]; σ1 pKi ± SEM): 1000 nM
–	–	–	–	6	Cc1cccc(-c2ccc3c(c2)[C@H]2C[C@H]3CCN2Cc2ccc3c(c2)OCO3)c1 [Compound 44]	Ki (sigma 1 receptor [2]; σ1 Ki (nM)): 4610 nM; Ki (sigma 1 receptor [2]; σ1 pKi ± SEM): 4570 nM; Ki (sigma 2 receptor [3]): 828 nM
